From US20090170788A1, “NOVEL USE OF 1, 2, 3, 4, 6-PENTA-O-GALLOYL-BETA-D-GLUCOSE” (priority 2006, published 2009)

Legend:
[1] = test system: albino SKH-1 hairless mice; test: Epidermal thickening induced by UV light in hairless mouse model (H&E staining); type: in vivo; conditions: UV B 10 weeks, topical 10 mg/200 μl/4 cm^2
Excerpt: (§1) The mice of each of the groups were put in an UV box equipped with an UV B lamp, and were irradiated with UV light at a dose of 100 mJ/cm^2 corresponding to minimal erythemal dose (MED). UV light was irradiated one time a day, three times a week for 4 weeks while increasing the dose of UV light from 100 mJ/cm^2 at the first week to 200 mJ/cm^2 at the second week, 300 mJ/cm^2 at the third week and 400 mJ/cm^2 at the fourth week so as to adapt the mice to UV light. Following the fourth week, the mice were irradiated with UV light at a dose of 400 mJ/cm^2 for 6 weeks, and thus the hairless mice were exposed to UV light for a total of 10 weeks, thereby inducing skin photoaging. (Kilgman L H, Clin Dermatol 14:183-195, 1996). In the case of the test group, starting from 4 weeks after UV irradiation, a composition containing 1,2,3,4,6-penta-O-galloyl-beta-D-glucose was dissolved in a propylene glycol solution containing 30% ethanol (7:3 [v/v] propylene glycol:ethanol) and applied to the skin of the mice in an amount of 10 mg/200 μl/4 cm^2. In the case of the group treated with UV light alone, a composition containing no 1,2,3,4,6-penta-O-galloyl-beta-D-glucose was applied to the mice in an amount of 200 μl/4 cm^2 in the same manner as the test group. […]

MMP-1 [2] = test: MMP-1 expression (ELISA) in UV-irradiated human normal dermal fibroblasts; type: cell-based
Protocol: (§2) Human normal dermal fibroblasts, which were isolated and cultured from the skin dermal layer cut from infant phimosis, were seeded into a 6-well plate at a density of 1×10^5 cells/well, and then cultured in 10% fetal bovine serum-containing DMEM (Dulbecco's modified Eagle's medium) for 24 hours. After the culture, the cells were washed three times with phosphate buffered saline (PBS) and then irradiated with UV A and […] in the following manner in order to induce skin aging. UV A was irradiated using a UV A lamp (Sankyo Denki FL8BL lamp, Sankyo Denki Co., Japan) to a total energy dose of 50 mJ/cm^2 at a rate of 27 mW/cm^2/sec, and UV B was irradiated using a UV B lamp (Sankyo Denki G9T5E lamp, Sankyo Denki Co., Japan) to a total energy dose of 170 mJ/cm^2 at a rate of 1.15 mW/cm^2/sec. […] In order to examine if the skin was aged after the culture, the expression levels of skin intercellular matrix component type I procollagen and its degradation enzyme MMP-1 were measured using a type I procollagen ELISA kit (Procollagen Type I C-Peptide EIA kit, TaKaRa, Japan) and a MMP-1 ELISA kit (MMP-1 human, ELISA system, Biotrak Assay, Amersham Biosciences, USA) according to manufacturer's protocols. […]

type I procollagen [3] = test: Type I procollagen expression in skin of UV-irradiated hairless mice (immunohistochemistry); type: in vivo, mouse; conditions: UV B 10 weeks, topical 10 mg/200 μl/4 cm^2
Excerpt: as §1

type I procollagen [4] = test: Type I procollagen expression (ELISA) in UV-irradiated human normal dermal fibroblasts; type: cell-based
Protocol: as §2

[5] = test system: albino SKH-1 hairless mice; test: Wrinkle formation caused by UV light in hairless mouse model (skin photographs, skin replica); type: in vivo; conditions: UV B 10 weeks, topical 10 mg/200 μl/4 cm^2 starting from 4 weeks after UV irradiation
Excerpt: Whether 1,2,3,4,6-penta-O-galloyl-beta-D-glucose has the effect of inhibiting wrinkle formation caused by UV light was examined. First, 7-week-old female hairless mice (albino SKH-1 hairless mice, Hanlim Experimental Animal Co., Suwon, Korea) were divided into the following three groups, each consisting of 10 animals.
as §1, with “cm^2.” for “cm^2. In the case of the group treated with UV light alone, a composition containing no 1,2,3,4,6-penta-O-galloyl-beta-D-glucose was applied to the mice in an amount of 200 μl/4 cm^2 in the same manner as the test group.”

COX-2 = COX-2 protein expression (Western blot) in UV B-irradiated human keratinocytes (HaCaT); type: cell-based; conditions: HaCaT cells, UV B 10 mJ/cm^2, 1, 10, 30, 50 μM, 12 hours
Protocol: Human keratinocytes (HaCaT cell) provided by professor N. Fusenig (German Cancer Research, Germany) were seeded into a 100 mm culture dish to 1.3×10^6 cells, and then cultured in a DMEM medium containing 10% fetal bovine serum for 24 hours. After the culture, the cells were washed three times with phosphate buffered saline, and then irradiated with UV B in the following manner in order to induce skin aging. UV B was irradiated using an UV B lamp to a total energy dose of 10 mJ/cm^2 at a rate of 0.6 mW/cm^2/sec. Just after the UV irradiation, the cells were washed again with phosphate buffered saline, and 1,2,3,4,6-penta-O-galloyl-beta-D-glucose was added to a DMEM medium containing no fetal bovine serum at concentrations of 1, 10, 30, 50 μM. Then, the cells were further cultured in the medium for 12 hours. Test groups were divided as follows: After the 12-hr culture, the cells were washed with cold phosphate buffered saline, and then treated with lysis buffer to separate a cell protein. Then, the cell protein was subjected to Western blot analysis using a COX-2 antibody (Santa Cruz Biotch., USA) and a horseradish peroxidase-conjugated secondary antibody (ZYMED Laboratories, USA). As a loading control group, […] was used.

MMP-1 [6] = test: MMP-1 expression in skin of UV-irradiated hairless mice (immunohistochemistry); type: in vivo, mouse; conditions: UV B 10 weeks, topical 10 mg/200 μl/4 cm^2
Excerpt: as §1

[7] = test system: albino SKH-1 hairless mice; test: Collagen formation/degradation after UV light in hairless mouse model (masson trichome staining); type: in vivo; conditions: UV B 10 weeks, topical 10 mg/200 μl/4 cm^2
Excerpt: as §1

[8] = human normal dermal fibroblasts, UV A 50 mJ/cm^2 or UV B 170 mJ/cm^2, 1 and 10 μg/ml, 24 hours, concentration-dependent, vs UV light alone
[9] = in vitro, UV-irradiated human skin fibroblasts, comparison with EGCG control group

## O=C(OC[C@H]1O[C@@H](OC(=O)c2cc(O)c(O)c(O)c2)[C@H](OC(=O)c2cc(O)c(O)c(O)c2)[C@@H](OC(=O)c2cc(O)c(O)c(O)c2)[C@@H]1OC(=O)c1cc(O)c(O)c(O)c1)c1cc(O)c(O)c(O)c1 [1,2,3,4,6-penta-O-galloyl-beta-D-glucose]
[1]
  thickening of the skin epidermal layer: the thickening of the skin epidermal layer was significantly decreased
MMP-1 [2]; [8]
  expression of MMP-1: a decrease in the expression of MMP-1
MMP-1 [2]; [9]
  inhibitory effect on MMP-1 compared to EGCG: much more superior to the MMP-1 inhibitory effect of EGCG
Type I procollagen [3]
  expression of type I procollagen in skin tissue: the expression of type I procollagen was increased compared to the group treated with UV light alone
Type I procollagen [4]; [8]
  expression of type I procollagen: an increase in the expression of type I procollagen
Type I procollagen [4]; [9]
  expression of type I procollagen compared to EGCG: marked increase in the expression of type I procollagen compared to the case of treatment with EGCG
[5]
  frequency of wrinkle formation: reduced the frequency of wrinkle formation
COX-2
  expression of COX-2: reduced the expression of COX-2 in a concentration-dependent manner
MMP-1 [6]
  expression of MMP-1 in skin tissue: this increase in expression was inhibited
[7]
  amount of collagen: the amount of collagen was increased compared to the group treated with UV light alone
  amount of damaged collagen: the amount of damaged collagen was decreased
